# Earlier results in patent US20220257548A1, “ORAL COMBINATION DRUG FORMULATION COMPRISING A NON-STEROIDAL ANTI-INFLAMMATORY DRUG AND A COMPLEMENTARY LOW DOSE OF TRANEXAMIC ACID FOR THE TREATMENT OF MENSTRUAL PAIN ACCOMPANIED WITH EXCESSIVE MENSTRUAL BLOOD LOSS” (ARSTAT, INC, priority 2011, published 2022).
# Like-named read-outs stand apart in the source and are kept apart here.
# Assays:
# [1] = test system: menstrual blood loss (MBL) in women
# [2] = test system: menstrual blood loss (MBL) in women with menorrhagia; settings: for mean percent change in MBL: Lysteda clinical study
# [3] = 6 g/day
structure (smiles),measurement,setting,value
O=C(O)Cc1ccccc1Nc1c(Cl)cccc1Cl [diclofenac sodium],reduction in MBL,[1]; 50 mg four times daily on Day 1 and three times on the following four days of the menstrual period,24%
CC(C)Cc1ccc(C(C)C(=O)O)cc1 (centres unmarked) [ibuprofen],reduction in MBL,[1]; 200 mg administered three times daily,16%
same,reduction in MBL,[1]; 400 mg administered four times daily,32%
Cc1cccc(Nc2ccccc2C(=O)O)c1C [mefenamic acid],reduction in MBL,"[1]; 500 mg three times daily during the menstrual period, women clinically diagnosed with menorrhagia (baseline MBL>80 mL)",30%
same,reduction in MBL,"[1]; 500 mg three times daily during the menstrual period, women with no clinical diagnosis of menorrhagia (baseline MBL<80 mL)",19%
NC[C@H]1CC[C@H](C(=O)O)CC1 [tranexamic acid],"limitations on social, leisure and physical activities",[2]; 3900 mg/day regimen,significantly reduces
same,"difference versus placebo in reduction of large stains, small and large clots and changes in serum ferritin levels",[2]; Lysteda NDA medical review,no statistically significant differences
same,subjects returned to normal MBL after treatment (mean on-treatment MBL of less than 80 mL),[2]; Lysteda NDA medical review,44%
same,mean percent change in MBL,[2]; oral tranexamic acid 1950 mg/day regimen,approximately 25%
same,mean percent change in MBL,[2]; oral tranexamic acid 3900 mg/day dose,39%
same,risk of gastrointestinal adverse events,[3],increased
